Converted amounts (≈) assume the structure as drawn. “And” between values parts separate entries of the source, which are not always exact repeats. Equal entries are not always repeated. Where two headings read alike, the source gives them in different places.
Columns and labels:
Format in all cases: cell-based
Blastomyces dermatitidis = experiment: Antifungal activity in vitro, mycelial growth on Sabouraud dextrose agar; conditions: for weekly increments of the diameter of colony: duplicates a, b; for MIC: Blastomyces dermatitidis
Histoplasma capsulatum = experiment: microbe, parasite or virus in culture; conditions: for weekly increments of the diameter of colony: duplicates a, b; for MIC: Histoplasma capsulatum
Sporotrichum schenckii = experiment: Antifungal activity in vitro, mycelial growth on Sabouraud dextrose agar; conditions: for weekly increments of the diameter of colony: duplicates a, b; for MIC: Sporothrix schenckii
Trichophyton rubrum = experiment: as above; conditions: for weekly increments of the diameter of colony: duplicates a, b; for MIC: Trichophyton rubrum
[1] = 336 h, two week period, read-out: minimum in vitro inhibitory concentration
[2] = 336 h, read-out: minimum in vitro inhibitory concentration

Q: With `CSC1(C)CCC2C(C)CCC(c3ccoc3)N2C1O` (single isomer, unassigned) [Example 7-MTDOL, 7β-methylthiodeoxynupharidin-6α-ol] as the compound, how does the “weekly increments of the diameter of colony” value (from here on “weekly increments”) (Blastomyces dermatitidis; 10 mcg/ml, week 1, No. 1107, 25° C) read?
A: Its value is 14 mm.

Q: And the “weekly increments” value (Blastomyces dermatitidis; 10 mcg/ml, week 2, No. 1107, 25° C)?
A: Its value is 20 mm and 21 mm.

Q: And the “weekly increments” value (Blastomyces dermatitidis; 10 mcg/ml, week 3, No. 1107, 25° C)?
A: The value was 35 mm and 32 mm.

Q: What about the “weekly increments” value (Blastomyces dermatitidis; 20 mcg/ml, week 1, No. 1107, 25° C) of the same compound?
A: Its value is 10 mm.

Q: What about the “weekly increments” value (Blastomyces dermatitidis; 20 mcg/ml, week 2, No. 1107, 25° C) of the same compound?
A: The value was 16 mm and 15 mm.

Q: And the “weekly increments” value (Blastomyces dermatitidis; 20 mcg/ml, week 3, No. 1107, 25° C)?
A: Its value is 17 mm and 18 mm.

Q: What about the “weekly increments” value (Blastomyces dermatitidis; 40 mcg/ml, week 1, No. 1107, 25° C) of the same compound?
A: The value was 7 mm and 6 mm.

Q: What about the “weekly increments” value (Blastomyces dermatitidis; 40 mcg/ml, week 2, No. 1107, 25° C) of the same compound?
A: Its value is 15 mm.

Q: What about the “weekly increments” value (Blastomyces dermatitidis; 40 mcg/ml, week 3, No. 1107, 25° C) of the same compound?
A: The value was 20 mm and 28 mm.

Q: And the “weekly increments” value (Blastomyces dermatitidis; 60 mcg/ml, week 1, No. 1107, 25° C)?
A: The value was 0 mm.

Q: And the “weekly increments” value (Blastomyces dermatitidis; 60 mcg/ml, week 2, No. 1107, 25° C)?
A: Its value is 5 mm.

Q: And the “weekly increments” value (Blastomyces dermatitidis; 60 mcg/ml, week 3, No. 1107, 25° C)?
A: The value was 5 mm and 7 mm.

Q: And the “weekly increments” value (Blastomyces dermatitidis; 80 mcg/ml, week 1, No. 1107, 25° C)?
A: The value was 0 mm.

Q: What about the “weekly increments” value (Blastomyces dermatitidis; 80 mcg/ml, week 2, No. 1107, 25° C) of the same compound?
A: Its value is 0 mm.

Q: And the “weekly increments” value (Blastomyces dermatitidis; 100 mcg/ml, week 1, No. 1107, 25° C)?
A: The value was 0 mm.

Q: And the MIC (Blastomyces dermatitidis; [1])?
A: The MIC was 80 µg/mL (≈ 271 µM).

Q: And the MIC (Blastomyces dermatitidis; 504 h, up to the end of 3 weeks, Sabouraud dextrose agar, read-out: concentration inhibiting mycelial growth)?
A: The MIC was 80 µg/mL (≈ 271 µM).

Q: What about the “weekly increments” value (Histoplasma capsulatum; 10 mcg/ml, week 2, No. 1106, 25° C) of the same compound?
A: Its value is 15 mm and 10 mm.

Q: And the “weekly increments” value (Histoplasma capsulatum; 10 mcg/ml, week 3, No. 1106, 25° C)?
A: Its value is 25 mm and 29 mm.

Q: What about the “weekly increments” value (Histoplasma capsulatum; 20 mcg/ml, week 1, No. 1106, 25° C) of the same compound?
A: Its value is 0 mm.

Q: What about the “weekly increments” value (Histoplasma capsulatum; 20 mcg/ml, week 3, No. 1106, 25° C) of the same compound?
A: The value was 10 mm and 5 mm.

Q: What about the “weekly increments” value (Histoplasma capsulatum; 40 mcg/ml, week 1, No. 1106, 25° C) of the same compound?
A: The value was 0 mm.

Q: What about the “weekly increments” value (Histoplasma capsulatum; 60 mcg/ml, week 1, No. 1106, 25° C) of the same compound?
A: Its value is 0 mm.

Q: And the “weekly increments” value (Histoplasma capsulatum; 60 mcg/ml, week 2, No. 1106, 25° C)?
A: Its value is 0 mm.

Q: What about the “weekly increments” value (Histoplasma capsulatum; 60 mcg/ml, week 3, No. 1106, 25° C) of the same compound?
A: Its value is 0 mm.

Q: What about the “weekly increments” value (Histoplasma capsulatum; 80 mcg/ml, week 1, No. 1106, 25° C) of the same compound?
A: Its value is 0 mm.

Q: What about the “weekly increments” value (Histoplasma capsulatum; 80 mcg/ml, week 2, No. 1106, 25° C) of the same compound?
A: The value was 0 mm.

Q: What about the “weekly increments” value (Histoplasma capsulatum; 80 mcg/ml, week 3, No. 1106, 25° C) of the same compound?
A: Its value is 0 mm.

Q: What about the “weekly increments” value (Histoplasma capsulatum; 100 mcg/ml, week 1, No. 1106, 25° C) of the same compound?
A: Its value is 0 mm.

Q: And the “weekly increments” value (Histoplasma capsulatum; 100 mcg/ml, week 2, No. 1106, 25° C)?
A: Its value is 0 mm.

Q: What about the “weekly increments” value (Histoplasma capsulatum; 100 mcg/ml, week 3, No. 1106, 25° C) of the same compound?
A: The value was 0 mm.

Q: And the MIC (Histoplasma capsulatum; [2])?
A: The MIC was 40 µg/mL (≈ 135 µM).

Q: And the MIC (Histoplasma capsulatum; 504 h, read-out: concentration inhibiting mycelial growth)?
A: Its MIC is 40 µg/mL (≈ 135 µM).

Q: What about the “weekly increments” value (Sporotrichum schenckii; 10 mcg/ml, week 1, No. 1109, 25° C) of the same compound?
A: Its value is 11 mm and 10 mm.

Q: What about the “weekly increments” value (Sporotrichum schenckii; 10 mcg/ml, week 2, No. 1109, 25° C) of the same compound?
A: Its value is 25 mm and 24 mm.

Q: And the “weekly increments” value (Sporotrichum schenckii; 20 mcg/ml, week 2, No. 1109, 25° C)?
A: The value was 20 mm.

Q: What about the “weekly increments” value (Sporotrichum schenckii; 20 mcg/ml, week 3, No. 1109, 25° C) of the same compound?
A: Its value is 31 mm and 29 mm.

Q: What about the “weekly increments” value (Sporotrichum schenckii; 40 mcg/ml, week 2, No. 1109, 25° C, a: colony overgrown by adjacent culture) of the same compound?
A: Its value is 18 mm and 15 mm.

Q: What about the “weekly increments” value (Sporotrichum schenckii; 40 mcg/ml, week 3, No. 1109, 25° C, a: colony overgrown by adjacent culture) of the same compound?
A: The value was 18 mm and 25 mm.

Q: What about the “weekly increments” value (Sporotrichum schenckii; 60 mcg/ml, week 1, No. 1109, 25° C) of the same compound?
A: The value was 0 mm.

Q: And the “weekly increments” value (Sporotrichum schenckii; 60 mcg/ml, week 2, No. 1109, 25° C)?
A: Its value is 10 mm.

Q: What about the “weekly increments” value (Sporotrichum schenckii; 60 mcg/ml, week 3, No. 1109, 25° C) of the same compound?
A: Its value is 20 mm.

Q: And the “weekly increments” value (Sporotrichum schenckii; 80 mcg/ml, week 1, No. 1109, 25° C)?
A: Its value is 0 mm.

Q: What about the “weekly increments” value (Sporotrichum schenckii; 80 mcg/ml, week 2, No. 1109, 25° C) of the same compound?
A: Its value is 0 mm.

Q: And the “weekly increments” value (Sporotrichum schenckii; 100 mcg/ml, week 1, No. 1109, 25° C)?
A: The value was 0 mm.

Q: And the “weekly increments” value (Sporotrichum schenckii; 100 mcg/ml, week 2, No. 1109, 25° C)?
A: The value was 0 mm.

Q: And the “weekly increments” value (Sporotrichum schenckii; 100 mcg/ml, week 3, No. 1109, 25° C)?
A: The value was 0 mm.

Q: What about the MIC (Sporotrichum schenckii; [1]) of the same compound?
A: Its MIC is 100 µg/mL (≈ 338 µM).

Q: What about the MIC (Sporotrichum schenckii; 504 h, up to the end of 3 weeks, Sabouraud dextrose agar, read-out: concentration inhibiting growth) of the same compound?
A: Its MIC is 100 µg/mL (≈ 338 µM).

Q: What about the “weekly increments” value (Trichophyton rubrum; 10 mcg/ml, week 1, No. 1112, 25° C) of the same compound?
A: Its value is 10 mm and 11 mm.

Q: What about the “weekly increments” value (Trichophyton rubrum; 10 mcg/ml, week 2, No. 1112, 25° C, colony overgrown by adjacent culture) of the same compound?
A: The value was 20 mm.

Q: And the “weekly increments” value (Trichophyton rubrum; 10 mcg/ml, week 3, No. 1112, 25° C, colony overgrown by adjacent culture)?
A: Its value is 22 mm and 25 mm.

Q: What about the “weekly increments” value (Trichophyton rubrum; 20 mcg/ml, week 1, No. 1112, 25° C) of the same compound?
A: Its value is 8 mm and 7 mm.

Q: What about the “weekly increments” value (Trichophyton rubrum; 20 mcg/ml, week 2, No. 1112, 25° C) of the same compound?
A: The value was 21 mm and 20 mm.

Q: What about the “weekly increments” value (Trichophyton rubrum; 20 mcg/ml, week 3, No. 1112, 25° C, b: colony overgrown by adjacent culture) of the same compound?
A: The value was 30 mm and 22 mm.

Q: What about the “weekly increments” value (Trichophyton rubrum; 40 mcg/ml, week 1, No. 1112, 25° C) of the same compound?
A: Its value is 8 mm and 6 mm.

Q: What about the “weekly increments” value (Trichophyton rubrum; 40 mcg/ml, week 2, No. 1112, 25° C) of the same compound?
A: The value was 20 mm and 18 mm.

Q: And the “weekly increments” value (Trichophyton rubrum; 40 mcg/ml, week 3, No. 1112, 25° C)?
A: The value was 30 mm and 26 mm.

Q: And the “weekly increments” value (Trichophyton rubrum; 60 mcg/ml, week 2, No. 1112, 25° C)?
A: The value was 8 mm and 6 mm.

Q: And the “weekly increments” value (Trichophyton rubrum; 60 mcg/ml, week 3, No. 1112, 25° C)?
A: The value was 14 mm and 15 mm.

Q: What about the “weekly increments” value (Trichophyton rubrum; 80 mcg/ml, week 1, No. 1112, 25° C) of the same compound?
A: The value was 0 mm.

Q: What about the “weekly increments” value (Trichophyton rubrum; 80 mcg/ml, week 2, No. 1112, 25° C) of the same compound?
A: Its value is 5 mm.

Q: What about the “weekly increments” value (Trichophyton rubrum; 80 mcg/ml, week 3, No. 1112, 25° C) of the same compound?
A: The value was 9 mm and 6 mm.

Q: What about the “weekly increments” value (Trichophyton rubrum; 100 mcg/ml, week 3, No. 1112, 25° C) of the same compound?
A: Its value is 6 mm and 7 mm.

Q: And the MIC (Trichophyton rubrum; [2])?
A: The MIC was 100 µg/mL (≈ 338 µM).

Q: What about the MIC (Trichophyton rubrum; 504 h, read-out: concentration inhibiting growth) of the same compound?
A: Its MIC is 100 µg/mL (≈ 338 µM).
